Data reported in patent US20220298135A1, “5-HETEROARYL-PYRIDIN-2-AMINE COMPOUNDS AS NEUROPEPTIDE FF RECEPTOR ANTAGONISTS” (Domain Therapeutics, priority 2019, published 2022).

Assays:
[1] = target: T1, human NPFFR1 (hNPFFR1) receptor (Homo sapiens, UniProt Q9GZQ6); experiment: Human NPFFR1 evaluation using BRET biosensors (antagonist IC50); format: cell-based; conditions: hNPFFR1 transiently over-expressed in HEK-293 T cells; BRET signal; stimulation by EC80 RFRP-3
T1 construct: expressed in transfected cells; host or cells: HEK-293 T cells, transient co-transfection with polyethylenimine
T1 sequence (Q9GZQ6 whole entry): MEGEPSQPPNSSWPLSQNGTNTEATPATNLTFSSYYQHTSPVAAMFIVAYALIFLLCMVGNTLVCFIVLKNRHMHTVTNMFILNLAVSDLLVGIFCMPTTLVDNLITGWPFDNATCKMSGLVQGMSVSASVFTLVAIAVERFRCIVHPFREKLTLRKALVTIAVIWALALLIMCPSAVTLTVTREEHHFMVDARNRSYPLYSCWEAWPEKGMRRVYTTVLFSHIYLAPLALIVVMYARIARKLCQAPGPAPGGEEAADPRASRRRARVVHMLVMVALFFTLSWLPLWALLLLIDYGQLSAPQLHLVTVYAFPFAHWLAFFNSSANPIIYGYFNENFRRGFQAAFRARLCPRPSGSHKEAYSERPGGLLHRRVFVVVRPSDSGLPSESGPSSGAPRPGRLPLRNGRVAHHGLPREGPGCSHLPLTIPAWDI
Description: Compounds of the present invention were tested successively for their agonist and antagonist activities on human NPFFR1 (hNPFFR1) receptor transiently over-expressed in HEK-293 T cells. Compounds exert agonist activity if, by themselves in absence of neuropeptide RFRP-3 (also named NPVF) they activate hNPFFR1; and they exert antagonist activity if they decrease the action of RFRP-3 on the receptor.
The assay used to measure compound activity is based on BRET (Bioluminescence Resonance Energy Transfer) biosensors and is designed to monitor the plasma membrane translocation of protein that interacts with specific Ga subunit. The specific effector (luciferase tagged: BRET donor) recruited at the membrane will be in close proximity to a plasma membrane anchor (GFP tagged: BRET acceptor) to induce a BRET signal. Biosensors are described in the patent application WO 2016/041093 A1 (Biosensors for monitoring biomolecule localization and trafficking in cells).
HEK-293 T cells are maintained in Dulbecco's Modified Eagle's Medium supplemented with 10% Foetal Calf Serum, 1% Penicillin/Streptomycin at 37° C./5% CO2.
Cells are co-transfected using polyethylenimine (25 kDa linear) with four DNA plasmids encoding: hNPFFR1, GαoB, a Gi family specific intracellular effector fused to luciferase (BRET donor), a plasma membrane effector fused to GFP (BRET acceptor). After transfection, cells are cultured for 48 h at 37° C./5% CO2.
Receptor activity is detected by changes in BRET signal.
On the day of the assay, cells are detached using trypsin 0.05%, resuspended in assay buffer (1.8 mM CaCl2, 1 mM MgCl2, 2.7 mM KCl, 137 mM NaCl, 0.4 mM NaH2PO4, 5.5 mM D-Glucose, 11.9 mM NaHCO3, 25 mM Hepes) and seeded in 384 well plate at a density of 20,000 cells per well. Then, plates are equilibrated 3.5 hours at 37° C. before adding compounds.
Compounds and luciferase substrate are added to the cells using an automated device (Freedom Evo®, Tecan) and BRET readings are collected on EnVision (PerkinElmer) with specific filters (410 nm BW 80 nm, 515 nm BW 30 nm).
Agonist and antagonist activities of compounds are consecutively evaluated on the same cell plate. Agonist activity is first measured after 10 minutes incubation with compound alone on the cells. Then, cells are stimulated by an EC80 RFRP-3 concentration and luminescence is recorded for additional 10 minutes. EC80 RFRP-3 concentration is the concentration giving 80% of the maximal RFRP-3 response. Agonist or antagonist activities are evaluated in comparison to basal signals evoked by assay buffer or EC80 RFRP-3 alone, respectively.
For IC50 determination, a dose-response test is performed using 20 concentrations (ranging over 6 logs) of each compound. Dose-response curves are fitted using the sigmoidal dose-response (variable slope) analysis in GraphPad Prism software (GraphPad Software) and IC50 of antagonist activity is calculated. Dose-response experiments are performed in duplicate, in two independent experiments.

| SMILES | melting point [°C] | IC50 [1] [nM] |
| --- | --- | --- |
| Cl.Nc1ccc(-c2cccc3c2oc2ccccc23)c(N)n1 [Example 40, 3-Dibenzofuran-4-ylpyridine-2,6-diamine] | 135 to 143 | < 100 |
| CCc1nc(N)ccc1-c1c(C)sc2ccccc12.Cl [Example 41, 6-Ethyl-5-(2-methylbenzothiophen-3-yl)pyridin-2-amine] | 70 to 72 | 100 to 1000 |
| CCc1nc(N)ccc1-c1csc2ccc(C)cc12.Cl [Example 42, 6-Ethyl-5-(5-methylbenzothiophen-3-yl)pyridin-2-amine] | 64 to 88 | 100 to 1000 |
| CCc1nc(N)ccc1-c1csc2ccc(F)cc12.Cl [Example 43, 6-Ethyl-5-(5-fluorobenzothiophen-3-yl)pyridin-2-amine] | > 250 | 100 to 1000 |
| CCc1nc(N)ccc1-c1ccccc1-c1cccnc1.Cl [Example 44, 6-Ethyl-5-[2-(3-pyridyl)phenyl]pyridin-2-amine] | > 250 | 100 to 1000 |
| Cl.Nc1ccc(-c2ccccc2-c2cccnc2)c(N)n1 [Example 45, 3-[2-(3-pyridyl)phenyl]pyridine-2,6-diamine] | 100 to 135 | 100 to 1000 |
| Cl.Nc1ccc(-c2ccccc2-c2ccc(N3CCOCC3)nc2)c(N)n1 [Example 46, 3-[2-(6-morpholino-3-pyridyl)phenyl]pyridine-2,6-diamine] | 180 to 210 | < 100 |
| CCc1nc(N)ccc1-c1cccc2cccnc12.Cl [Example 47, 6-ethyl-5-(quinolin-8-yl)pyridin-2-amine] | > 250 | < 100 |
| Cl.Cn1nccc1-c1ccccc1-c1ccc(N)nc1N [Example 48, 3-(2-(1-methyl-1H-pyrazol-5-yl)phenyl)pyridine-2,6-diamine] | > 250 | > 1000 |
| Cn1ccc2cccc(-c3ccc(N)nc3N)c21 [Example 49, 3-(1-methyl-1H-indol-7-yl)pyridine-2,6-diamine] | 100 to 117 | < 100 |
| Cl.Nc1ccc(-c2cccc3ccoc23)c(N)n1 [Example 50, 3-(benzofuran-7-yl)pyridine-2,6-diamine] | > 250 | 100 to 1000 |
| Cl.Nc1ccc(-c2cccc3sccc23)c(N)n1 [Example 51, 3-(benzo[b]thiophen-4-yl)pyridine-2,6-diamine] | 100 to 120 | < 100 |
| Cl.Nc1ccc(-c2cc(F)cc3cccnc23)c(N)n1 [Example 52, 3-(6-fluoroquinolin-8-yl)pyridine-2,6-diamine] | > 250 | < 100 |
| Cc1cc(-c2ccc(N)nc2N)c2ncccc2c1.Cl [Example 53, 3-(6-methylquinolin-8-yl)pyridine-2,6-diamine] | 180 to 200 | < 100 |
| Cl.Nc1ccc(-c2ccc(C(F)(F)F)c3cccnc23)c(N)n1 [Example 54, 3-(5-(trifluoromethyl)quinolin-8-yl)pyridine-2,6-diamine] | > 250 | > 1000 |
| Cl.Nc1ccc(-c2ccc(F)c3cccnc23)c(N)n1 [Example 55, 3-(5-fluoroquinolin-8-yl)pyridine-2,6-diamine] | 73 to 81 | < 100 |
| Cl.Nc1ccc(-c2c(F)ccc3cccnc23)c(N)n1 [Example 57, 3-(7-fluoroquinolin-8-yl)pyridine-2,6-diamine] | 190 to 220 | < 100 |

| SMILES | melting point [°C] | IC50 [1] [nM] |
| --- | --- | --- |
| Cl.Nc1ccc(-c2cccc3cc(F)cnc23)c(N)n1 [Example 58, 3-(3-fluoroquinolin-8-yl)pyridine-2,6-diamine] | 114 to 116 | < 100 |
| Cl.Nc1ccc(-c2c(F)cc(F)c3cc(F)cnc23)c(N)n1 [Example 61, 3-(3,5,7-trifluoroquinolin-8-yl)pyridine-2,6-diamine] | > 250 | < 100 |
| Cl.Nc1ccc(-c2c(F)ccc3ccc(O)nc23)c(N)n1 [Example 62, 8-(2,6-diaminopyridin-3-yl)-7-fluoroquinolin-2-ol] | 210 to 230 | < 100 |
| Cl.Nc1ccc(-c2c(F)c(F)cc3ccc(O)nc23)c(N)n1 [Example 64, 8-(2,6-diaminopyridin-3-yl)-6,7-difluoroquinolin-2-ol] | > 250 | < 100 |
| CCc1nc(N)ccc1-c1c(F)ccc2cccnc12.Cl [Example 65, 6-ethyl-5-(7-fluoroquinolin-8-yl)pyridin-2-amine] | 150 to 195 | < 100 |
| CCc1nc(N)ccc1-c1cccc2c1OCCC2.Cl [Example 66, 5-(chroman-8-yl)-6-ethylpyridin-2-amine] | 180 to 192 | < 100 |
| CC(C)Cc1nc(N)ccc1-c1cccc2cccnc12.Cl [Example 67, 6-isobutyl-5-(quinolin-8-yl)pyridin-2-amine] | 100 to 140 | < 100 |
| Cl.Nc1ccc(-c2cccc3cccnc23)c(CC2CCC2)n1 [Example 68, 6-(cyclobutylmethyl)-5-(quinolin-8-yl)pyridin-2-amine] | 120 to 180 | < 100 |
| Cl.Nc1ccc(-c2c(F)ccc3cccnc23)c(CCC(F)(F)F)n1 [Example 69, 5-(7-fluoroquinolin-8-yl)-6-(3,3,3-trifluoropropyl)pyridin-2-amine] | 85 to 145 | 100 to 1000 |
| CC(C)Cc1nc(N)ccc1-c1c(F)ccc2cccnc12.Cl [Example 70, 5-(7-fluoroquinolin-8-yl)-6-isobutylpyridin-2-amine] | 130 to 170 | < 100 |
| Cl.Nc1ccc(-c2c(F)ccc3cccnc23)c(CCCC(F)(F)F)n1 [Example 71, 5-(7-fluoroquinolin-8-yl)-6-(4,4,4-trifluorobutyl)pyridin-2-amine] | 70 to 130 | < 100 |
| Cl.Nc1ccc(-c2c(F)ccc3cccnc23)c(CC2CC2)n1 [Example 72, 6-(cyclopropylmethyl)-5-(7-fluoroquinolin-8-yl)pyridin-2-amine] | 170 to 207 | < 100 |
| CC(C)CCc1nc(N)ccc1-c1c(F)ccc2cccnc12.Cl [Example 73, 5-(7-fluoroquinolin-8-yl)-6-isopentylpyridin-2-amine] | 100 to 140 | < 100 |
| CCc1nc(N)ccc1-c1cc(F)cc2cccnc12.Cl [Example 74, 6-ethyl-5-(6-fluoroquinolin-8-yl)pyridin-2-amine] | 50 to 56 | < 100 |
| CCc1nc(N)ccc1-c1ccc(C(F)(F)F)c2cccnc12.Cl [Example 75, 6-ethyl-5-(5-(trifluoromethyl)quinolin-8-yl)pyridin-2-amine] | 120 to 137 | > 1000 |
| CCc1nc(N)ccc1-c1c(F)ccc2ccc(C)nc12.Cl [Example 76, 6-ethyl-5-(7-fluoro-2-methylquinolin-8-yl)pyridin-2-amine] | 95 to 120 | < 100 |
| CCc1nc(N)ccc1-c1cc(C)cc2cccnc12.Cl [Example 77, 6-ethyl-5-(6-methylquinolin-8-yl)pyridin-2-amine] | 100 to 140 | < 100 |
